Each structure is given as a SMILES string. Where a name gives a salt, the structure may show the parent alone.

Data on twelve compounds can be found in paper PMC4282894, “Effect of Bile Salt Hydrolase Inhibitors on a Bile Salt Hydrolase from Lactobacillus acidophilus” (Pathogens, 2014).

The target in the first experiment is T1, L. acidophilus BSH (rBSH; LaciP) (Lactobacillus acidophilus, UniProt A5HKP3).
T1 construct: full-length BSH (316 aa), C-terminal His tag, pET-21b(+), E. coli BL21(DE3), Ni-NTA; about 32 kDa on SDS-PAGE
T1 sequence (A5HKP3 whole entry): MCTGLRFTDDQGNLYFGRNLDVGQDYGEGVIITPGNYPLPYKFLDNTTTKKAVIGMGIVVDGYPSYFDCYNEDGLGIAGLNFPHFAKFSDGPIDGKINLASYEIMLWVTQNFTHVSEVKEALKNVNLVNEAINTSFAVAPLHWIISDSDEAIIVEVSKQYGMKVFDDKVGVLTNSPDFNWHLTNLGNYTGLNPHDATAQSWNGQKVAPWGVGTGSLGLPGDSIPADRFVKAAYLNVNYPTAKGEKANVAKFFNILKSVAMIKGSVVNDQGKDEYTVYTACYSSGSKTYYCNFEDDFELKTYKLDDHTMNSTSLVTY
As to the kind of experiment: two-step ninhydrin BSH assay (glycine release from glycocholic acid). In kind it is biochemical.
Details: not given
An excerpt:
two-step ninhydrin BSH assay (glycine release from glycocholic acid) on L. acidophilus BSH (rBSH; LaciP)
The inhibition is the percentage by which the read-out fell short of the control. The low end stands for little suppression, the high end for strong suppression. Consider `O=C(/C=C/c1ccc(O)c(O)c1)OCCc1ccccc1` [Caffeic Acid Phenethyl Ester], for which the inhibition at 2500 µM came to 71.8%.
`CN(C)[C@@H]1C(O)=C(C(N)=O)C(=O)[C@@]2(O)C(O)=C3C(=O)c4c(O)ccc(Cl)c4[C@@H](O)[C@H]3C[C@@H]12` [Demeclocycline Hydrochloride]: the inhibition at 2500 µM was determined as 99.6%.
`C[C@H]1c2cccc(O)c2C(O)=C2C(=O)[C@]3(O)C(O)=C(C(N)=O)C(=O)[C@@H](N(C)C)[C@@H]3[C@@H](O)[C@@H]21` [Doxycycline Hydrochloride] displayed an inhibition at 2500 µM of 98.3%.
Same read-out and setting: the result for `O=C(O[C@@H]1Cc2c(O)cc(O)cc2O[C@@H]1c1ccc(O)c(O)c1)c1cc(O)c(O)c(O)c1` [Epicatechin monogallate] reads 52.8%; that for `O=c1c(O)c(-c2ccc(O)c(O)c2)oc2c(O)c(O)cc(O)c12` [Gossypetin], 96.1%; that for `CCC[C@@H]1C[C@@H](C(=O)N[C@@H]([C@H]2O[C@H](SC)[C@H](O)[C@@H](O)[C@H]2O)[C@@H](C)O)N(C)C1` [Lincomycin], 26.8%.
Same read-out and setting: the result for `CC1=CC(=O)c2ccccc2C1=O` [Menadione] reads 97.9%; that for `C=C1c2cccc(O)c2C(=O)C2=C(O)[C@]3(O)C(=O)C(C(N)=O)=C(O)[C@@H](N(C)C)[C@@H]3[C@@H](O)[C@H]12` [Methacycline Hydrochloride], 99.2%.
Still for that read-out and setting: the result for `CN(C)[C@@H]1C(=O)C(C(N)=O)=C(O)[C@@]2(O)C(=O)C3=C(O)c4c(O)cccc4[C@@](C)(O)[C@H]3[C@H](O)[C@@H]12` [Oxytetracycline] reads 99.6%; that for `O=c1c(O)cccc2cc(O)c(O)c(O)c12` [Purpurogallin], 36.1%.
For the compound `Cc1cc2nc3c(=O)[nH]c(=O)nc-3n(C[C@H](O)[C@H](O)[C@H](O)CO)c2cc1C` [Riboflavin], the inhibition at 500 µM is 96.5%.

The same experiment, now with this note: 2500 µM; 5 mM glycocholic acid, about 10 mM DTT, 0.1 M sodium phosphate pH 6.0, 37 °C, 30 min preincubation.
What is called % Inhibition is how much of the control response was suppressed. As to `O=[N+]([O-])c1cc([As](=O)(O)O)ccc1O` [Roxarsone], the “% Inhibition” value is 48.6%.
